Laboratory results taken from patent US12729211B2, “Gold(III) compounds and cancer cell-selective modulation of mitochondrial respiration and metabolism” (University of Kentucky Research Foundation, priority 2020, dated 2026).

Key:
MDA-MB-468 [1] = test: Mitochondrial ROS (mtROS) by MitoSOX FACS; assay type: cell-based; conditions: MitoTEMPO 1 μM 2 hours, then 2a 10 μM 2 hours
Description: Second, to solidify the specificity of ROS, the use of MitoSOX was employed, which is a mitochondrial targeting dye that specifically reacts with superoxide.
First, the effect of pre-treatment on mtROS production was examined using flow cytometry. Since MitoTEMPO is a specific scavenger for superoxide, the potential to alleviate mitochondrial oxidative damage was investigated by scavenging mtROS once produced. […] In this experiment, Rotenone, a mitochondrial complex I inhibitor, was used as a positive control.

MDA-MB-468 [2] = test: MMP by JC-1 FACS, MDA-MB-468; assay type: cell-based
Description: The MMP depolarizing effect on the panel of TBNCs and healthy models was examined with the use of flow assisted cell sorting (FACS) (FIG. 19A-C). JC-1 was used, a cationic, fluorometric dye that is dependent on the negative charge of the MMP. It is represented as J-aggregates (red fluorescence) when it accumulates into the mitochondria and J-monomers (green fluorescence) when it is located outside the mitochondrial membrane due to loss of the electrochemical gradient.
Next, the effect of MMP was examined when pretreated with MitoTEMPO (1 μM, 2 hours) (FIG. 34).

Row | Compound | decrease in mtROS versus the non-pretreated group (MDA-MB-468 [1]) [fold] | loss of MMP, MitoTEMPO pretreatment (MDA-MB-468 [2]) [%] | loss of MMP, no pretreatment (MDA-MB-468 [2]) [%]
1 | CC1(C)CC(NC(=O)C[P+](c2ccccc2)(c2ccccc2)c2ccccc2)CC(C)(C)N1[O] [MitoTEMPO] | 1.8 |  | 
2 | Carbonyl cyanide m-chlorophenyl hydrazine [CCCP] |  | 84 | 95
